Assays:
human TRPV3 = target: T1, human TRPV3 (Homo sapiens, UniProt Q8NET8); test: In vitro antagonism of recombinant human TRPV3 activation (FLIPR Tetra calcium assay, 2-APB as agonist); assay type: cell-based; conditions: HEK293 cells stably expressing human TRPV3; 2-APB 80 μM; range class; read-out: IC50 (reported range)
T1 construct: expressed in transfected cells
T1 sequence (Q8NET8 1-790): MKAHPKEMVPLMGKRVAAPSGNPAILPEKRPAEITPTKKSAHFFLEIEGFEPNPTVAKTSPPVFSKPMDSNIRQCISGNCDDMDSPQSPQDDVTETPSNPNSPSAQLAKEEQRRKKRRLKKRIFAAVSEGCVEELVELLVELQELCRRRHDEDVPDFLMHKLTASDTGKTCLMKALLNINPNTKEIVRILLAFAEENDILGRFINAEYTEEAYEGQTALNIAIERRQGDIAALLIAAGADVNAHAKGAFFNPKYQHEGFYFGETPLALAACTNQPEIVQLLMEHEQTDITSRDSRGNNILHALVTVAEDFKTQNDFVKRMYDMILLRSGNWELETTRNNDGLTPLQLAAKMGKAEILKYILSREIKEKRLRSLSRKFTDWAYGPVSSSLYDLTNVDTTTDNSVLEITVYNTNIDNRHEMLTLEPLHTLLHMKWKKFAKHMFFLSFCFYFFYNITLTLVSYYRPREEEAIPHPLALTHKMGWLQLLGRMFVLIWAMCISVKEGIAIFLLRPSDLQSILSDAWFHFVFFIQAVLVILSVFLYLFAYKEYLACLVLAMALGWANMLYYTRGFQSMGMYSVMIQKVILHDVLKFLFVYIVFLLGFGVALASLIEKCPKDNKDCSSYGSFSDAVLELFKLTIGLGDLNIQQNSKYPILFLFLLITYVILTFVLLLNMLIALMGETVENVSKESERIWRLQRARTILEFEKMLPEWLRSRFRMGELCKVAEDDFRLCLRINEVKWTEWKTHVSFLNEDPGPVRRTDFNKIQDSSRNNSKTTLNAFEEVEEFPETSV
In short: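 HEK293 cells stably expressing human TRPV3, loaded with Calcium-4 dye for 90-120 min; compound added 3 min before 2-APB at 80 μM (its EC80). Fluorescence (max minus min) over 10 min expressed as % of maximal 2-APB response without antagonist; IC50 mostly averaged from n≧2 runs.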

[1] = In vitro human microsomal stability assay; assay type: in vitro ADME
In short: (§1)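 Compounds were incubated at 37 °C with Sprague-Dawley rat liver microsomes (rat assay) or human liver microsomes (human assay) to measure metabolic stability. NADPH was added, including to the time-zero samples.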

[2] = In vitro rat microsomal stability assay; assay type: in vitro ADME, rat (Sprague-Dawley)
In short: as §1

[3] = Sprague-Dawley, rat, 0.5 h, 0.5 μM, pH 7.4
[4] = 0.5 μM substrate, 0.25 mg/mL microsomal protein, pH 7.4, 37° C., NADPH, 30 minutes

SMILES | IC50 (human TRPV3) | HUMAN MICROSOMAL STABILITY (% REMAINING AFTER 30 MINUTES) ([1]; human, 0.5 h, 0.5 μM, pH 7.4) | RAT MICROSOMAL STABILITY (% REMAINING AFTER 30 MINUTES) [2, 3] | HUMAN MICROSOMAL STABILITY (% REMAINING AFTER 30 MINUTES) [1, 4] | RAT MICROSOMAL STABILITY (% REMAINING AFTER 30 MINUTES) [2, 4]
OC(c1ccccn1)C1(c2cccc(OC(F)(F)F)c2)CCCO1 (stereo not drawn) [Example 93, (syn)-pyridin-2-yl{2-[3-(trifluoromethoxy)phenyl]tetrahydrofuran-2-yl}-methanol] | 501 to 1000 nM | 12% | 0.33% | – | –
OC(c1ccccn1)C1(c2ccc(OC(F)(F)F)cc2)CCCO1 (stereo not drawn) [Example 94, (anti)-pyridin-2-yl{2-[4-(trifluoromethoxy)phenyl]tetrahydrofuran-2-yl}-methanol] | 50 to 500 nM | 55% | 3.8% | – | –
OC(c1ccccn1)C1(c2ccc(OC(F)(F)F)cc2)CCCO1 (stereo not drawn) [Example 95, (syn)-pyridin-2-yl{2-[4-(trifluoromethoxy)phenyl]tetrahydrofuran-2-yl}-methanol] | 1100 to 5000 nM | 57% | 0.61% | – | –
OC(c1ccccn1)C1(c2ccccc2OC(F)(F)F)CCCO1 (stereo not drawn) [Example 96, (anti)-pyridin-2-yl{2-[2-(trifluoromethoxy)phenyl]tetrahydrofuran-2-yl}-methanol] | 1100 to 5000 nM | 0.68% | 0.15% | – | –
OC(c1ccccn1)C1(c2ccccc2OC(F)(F)F)CCCO1 (stereo not drawn) [Example 97, (syn)-pyridin-2-yl{2-[2-(trifluoromethoxy)phenyl]tetrahydrofuran-2-yl}-methanol] | 50 to 500 nM | 6.4% | 0.16% | – | –
OC(c1ccccn1)C1(c2ccc(Cl)c(Cl)c2)CCCO1 (stereo not drawn) [Example 98] | 50 to 500 nM | 7.6% | 0.020% | – | –
OC(c1ccccn1)C1(c2ccc(Cl)c(Cl)c2)CCCO1 (stereo not drawn) [Example 99, (syn)-[2-(3,4-dichlorophenyl)tetrahydrofuran-2-yl](pyridin-2-yl)methanol] | 1100 to 5000 nM | 30% | 0.17% | – | –
OC(c1ccccn1)C1(c2cccc(F)c2)CCCO1 (stereo not drawn) [Example 100, (anti)-[2-(3-fluorophenyl)tetrahydrofuran-2-yl](pyridin-2-yl)methanol] | 501 to 1000 nM | 26% | 2.9% | – | –
OC(c1ccccn1)C1(c2ccccc2F)CCCO1 (stereo not drawn) [Example 103, (syn)-[2-(2-fluorophenyl)tetrahydrofuran-2-yl](pyridin-2-yl)methanol] | 1100 to 5000 nM | 73% | 0.012% | – | –
OC(c1ccccn1)C1(c2cccc(Cl)c2)CCCO1 (stereo not drawn) [Example 104, (anti)-[2-(3-chlorophenyl)tetrahydrofuran-2-yl](pyridin-2-yl)methanol] | 50 to 500 nM | 15% | 0.42% | – | –
OC(c1ccccn1)C1(c2cccc(Cl)c2)CCCO1 (stereo not drawn) [Example 105, (syn)-[2-(3-chlorophenyl)tetrahydrofuran-2-yl](pyridin-2-yl)methanol] | 5100 to 20000 nM | 42% | 0.040% | – | –
OC(c1ccccn1)C1(c2cccc(C(F)(F)F)c2)CCCO1 (stereo not drawn) [Example 106, (anti)-pyridin-2-yl{2-[3-(trifluoromethyl)phenyl]tetrahydrofuran-2-yl}-methanol] | 50 to 500 nM | 3.9% | 1.6% | – | –
OC(c1ccccn1)C1(c2cccc(C(F)(F)F)c2)CCCO1 (stereo not drawn) [Example 107, (syn)-pyridin-2-yl{2-[3-(trifluoromethyl)phenyl]tetrahydrofuran-2-yl}-methanol] | 1100 to 5000 nM | 31% | 0.23% | – | –
Cl.O[C@H](c1ccccn1)C1(c2ccc(Cl)c(Cl)c2)CC(F)(F)C1 [Example 111, (S)-[1-(3,4-dichlorophenyl)-3,3-difluorocyclobutyl](pyridin-2-yl)methanol hydrochloride] | 50 to 500 nM | – | – | 52% | 23%

Continued, in another order:

IC50 (human TRPV3) | HUMAN MICROSOMAL STABILITY (% REMAINING AFTER 30 MINUTES) ([1]; human, 0.5 h, 0.5 μM, pH 7.4) | RAT MICROSOMAL STABILITY (% REMAINING AFTER 30 MINUTES) [2, 3] | SMILES | HUMAN MICROSOMAL STABILITY (% REMAINING AFTER 30 MINUTES) [1, 4] | RAT MICROSOMAL STABILITY (% REMAINING AFTER 30 MINUTES) [2, 4]
501 to 1000 nM | 13% | 4.9% | OC(c1ccccn1)C1(c2ccc(F)c(F)c2)CCCO1 (stereo not drawn) [Example 108, (anti)-[2-(3,4-difluorophenyl)tetrahydrofuran-2-yl](pyridin-2-yl)methanol] | – | –
5100 to 20000 nM | 45% | 0.74% | OC(c1ccccn1)C1(c2ccc(F)c(F)c2)CCCO1 (stereo not drawn) [Example 109, (syn)-[2-(3,4-difluorophenyl)tetrahydrofuran-2-yl](pyridin-2-yl)methanol] | – | –
50 to 500 nM | 75% | 75% | OC(c1ccccn1)C1(c2ccc(OC(F)(F)F)cc2)CC(F)(F)C1 (stereo not drawn) [Example 112, {3,3-difluoro-1-[4-(trifluoromethoxy)phenyl]cyclobutyl}(pyridin-2-yl)-methanol] | – | –
50 to 500 nM | 24% | 18% | OC(c1ccccn1)C1(c2cccc(C(F)(F)F)c2)CC(F)(F)C1 (stereo not drawn) [Example 113, {3,3-difluoro-1-[3-(trifluoromethyl)phenyl]cyclobutyl}(pyridin-2-yl)-methanol] | – | –
50 to 500 nM | 6.9% | 11% | OC(c1ccccn1)C1(c2cccc(OC(F)(F)F)c2)CC(F)(F)C1 (stereo not drawn) [Example 114, {3,3-difluoro-1-[3-(trifluoromethoxy)phenyl]cyclobutyl}(pyridin-2-yl)-methanol] | – | –
5100 to 20000 nM | >85% | 81% | OC(c1ccccn1)C1(c2ccc(C(F)(F)F)cn2)CCC1 (stereo not drawn) [Example 115, pyridin-2-yl{1-[5-(trifluoromethyl)pyridin-2-yl]cyclobutyl}methanol] | – | –
501 to 1000 nM | 37% | 25% | OC(c1ccccn1)C1(c2cc(C(F)(F)F)ccn2)CCC1 (stereo not drawn) [Example 116, pyridin-2-yl{1-[4-(trifluoromethyl)pyridin-2-yl]cyclobutyl}methanol] | – | –
1100 to 5000 nM | 18% | 50% | O=C1CC(c2ccc(Cl)c(Cl)c2)([C@H](O)c2ccccn2)C1 [Example 117, 3-(3,4-dichlorophenyl)-3-[(S)-hydroxy(pyridin-2-yl)methyl]cyclobutanone] | – | –
50 to 500 nM | 21% | 11% | O[C@H](c1ccccn1)C1(c2cc(C(F)(F)F)ccn2)CCC1 [Example 123, (S)-pyridin-2-yl{1-[4-(trifluoromethyl)pyridin-2-yl]cyclobutyl}methanol] | – | –
5100 to 20000 nM | 53% | 8.8% | O[C@@H](c1ccccn1)C1(c2cc(C(F)(F)F)ccn2)CC(F)(F)C1 [Example 125, (R)-{3,3-difluoro-1-[4-(trifluoromethyl)pyridin-2-yl]cyclobutyl}(pyridin-2-yl)methanol] | – | –
501 to 1000 nM | 21% | 7.7% | O[C@H](c1ccccn1)C1(c2cc(C(F)(F)F)ccn2)CC(F)(F)C1 [Example 126, (S)-{3,3-difluoro-1-[4-(trifluoromethyl)pyridin-2-yl]cyclobutyl}(pyridin-2-yl)methanol] | – | –
5100 to 20000 nM | 51% | 1.1% | Nc1cccnc1C(O)C1(c2ccc(C(F)(F)F)cc2)CCC1 (stereo not drawn) [Example 127, (3-aminopyridin-2-yl){1-[4-(trifluoromethyl)phenyl]cyclobutyl}methanol] | – | –

— patent publication US8772500B2, “TRPV3 modulators” (AbbVie Inc., priority 2011, dated 2014)
